± gives the expanded uncertainty stated by the source.
Key:
[1] = relative permittivity at various frequencies (dimensionless); xn = mol fraction of the nth substance listed; settings: 101.3 kPa, Liquid, HP4284A LCR Meter with HP16452A measuring cell
[2] = xn = mol fraction of the nth substance listed; settings: 101.3 kPa, Liquid

COCCOCCOCCOC [2,5,8,11-tetraoxadodecane] + CCCCCCCCC
Settings | mass density [kg/m3] | relative permittivity
[1], 288.15 K, x1 = 0.0979 | – | 2.32 ± 0.05
[1], 288.15 K, x1 = 0.1997 | – | 2.72 ± 0.05
[1], 288.15 K, x1 = 0.2461 | – | 2.91 ± 0.06
[1], 288.15 K, x1 = 0.2965 | – | 3.15 ± 0.06
[1], 288.15 K, x1 = 0.3969 | – | 3.65 ± 0.07
[1], 288.15 K, x1 = 0.5043 | – | 4.24 ± 0.08
[1], 288.15 K, x1 = 0.6013 | – | 4.83 ± 0.1
[1], 288.15 K, x1 = 0.6972 | – | 5.48 ± 0.11
[1], 288.15 K, x1 = 0.7975 | – | 6.22 ± 0.12
[1], 288.15 K, x1 = 0.8996 | – | 7.02 ± 0.14
[1], 288.15 K, x1 = 0.9503 | – | 7.44 ± 0.15
[1], 293.15 K, x1 = 0.0979 | – | 2.3 ± 0.05
[1], 293.15 K, x1 = 0.1999 | – | 2.7 ± 0.05
[1], 293.15 K, x1 = 0.2483 | – | 2.9 ± 0.06
[1], 293.15 K, x1 = 0.2962 | – | 3.12 ± 0.06
[1], 293.15 K, x1 = 0.3968 | – | 3.61 ± 0.07
[1], 293.15 K, x1 = 0.5047 | – | 4.2 ± 0.08
[1], 293.15 K, x1 = 0.6015 | – | 4.78 ± 0.1
[1], 293.15 K, x1 = 0.6957 | – | 5.4 ± 0.11
[1], 293.15 K, x1 = 0.7975 | – | 6.11 ± 0.12
[1], 293.15 K, x1 = 0.8996 | – | 6.9 ± 0.14
[1], 293.15 K, x1 = 0.951 | – | 7.31 ± 0.15
[1], 298.15 K, x1 = 0.0975 | – | 2.3 ± 0.05
[1], 298.15 K, x1 = 0.2091 | – | 2.72 ± 0.05
[1], 298.15 K, x1 = 0.2569 | – | 2.92 ± 0.06
[1], 298.15 K, x1 = 0.2955 | – | 3.08 ± 0.06
[1], 298.15 K, x1 = 0.4035 | – | 3.61 ± 0.07
[1], 298.15 K, x1 = 0.5005 | – | 4.13 ± 0.08
[1], 298.15 K, x1 = 0.5944 | – | 4.67 ± 0.09
[1], 298.15 K, x1 = 0.6956 | – | 5.32 ± 0.11
[1], 298.15 K, x1 = 0.8007 | – | 6.04 ± 0.12
[1], 298.15 K, x1 = 0.901 | – | 6.79 ± 0.14
[1], 298.15 K, x1 = 0.9489 | – | 7.17 ± 0.14
[1], 303.15 K, x1 = 0.099 | – | 2.28 ± 0.05
[1], 303.15 K, x1 = 0.2015 | – | 2.66 ± 0.05
[1], 303.15 K, x1 = 0.2491 | – | 2.86 ± 0.06
[1], 303.15 K, x1 = 0.297 | – | 3.06 ± 0.06
[1], 303.15 K, x1 = 0.4001 | – | 3.56 ± 0.07
[1], 303.15 K, x1 = 0.4967 | – | 4.06 ± 0.08
[1], 303.15 K, x1 = 0.596 | – | 4.63 ± 0.09
[1], 303.15 K, x1 = 0.6976 | – | 5.27 ± 0.11
[1], 303.15 K, x1 = 0.7976 | – | 5.93 ± 0.12
[1], 303.15 K, x1 = 0.9012 | – | 6.69 ± 0.13
[1], 303.15 K, x1 = 0.9496 | – | 7.06 ± 0.14
[1], 308.15 K, x1 = 0.0979 | – | 2.26 ± 0.05
[1], 308.15 K, x1 = 0.1997 | – | 2.63 ± 0.05
[1], 308.15 K, x1 = 0.2461 | – | 2.81 ± 0.06
[1], 308.15 K, x1 = 0.2965 | – | 3.03 ± 0.06
[1], 308.15 K, x1 = 0.3969 | – | 3.49 ± 0.07
[1], 308.15 K, x1 = 0.5043 | – | 4.05 ± 0.08
[1], 308.15 K, x1 = 0.6013 | – | 4.6 ± 0.09
[1], 308.15 K, x1 = 0.6972 | – | 5.19 ± 0.1
[1], 308.15 K, x1 = 0.7975 | – | 5.85 ± 0.12
[1], 308.15 K, x1 = 0.8996 | – | 6.58 ± 0.13
[1], 308.15 K, x1 = 0.9503 | – | 6.96 ± 0.14
[1], 318.15 K, x1 = 0.0987 | – | 2.24 ± 0.05
[1], 318.15 K, x1 = 0.2016 | – | 2.6 ± 0.05
[1], 318.15 K, x1 = 0.248 | – | 2.78 ± 0.06
[1], 318.15 K, x1 = 0.2973 | – | 2.97 ± 0.06
[1], 318.15 K, x1 = 0.4 | – | 3.43 ± 0.07
[1], 318.15 K, x1 = 0.502 | – | 3.94 ± 0.08
[1], 318.15 K, x1 = 0.6006 | – | 4.48 ± 0.09
[1], 318.15 K, x1 = 0.6982 | – | 5.07 ± 0.1
[1], 318.15 K, x1 = 0.8053 | – | 5.75 ± 0.12
[1], 318.15 K, x1 = 0.9018 | – | 6.42 ± 0.13
[1], 318.15 K, x1 = 0.9503 | – | 6.75 ± 0.14
[1], 328.15 K, x1 = 0.1007 | – | 2.23 ± 0.04
[1], 328.15 K, x1 = 0.2003 | – | 2.57 ± 0.05
[1], 328.15 K, x1 = 0.2486 | – | 2.75 ± 0.06
[1], 328.15 K, x1 = 0.2973 | – | 2.95 ± 0.06
[1], 328.15 K, x1 = 0.3958 | – | 3.38 ± 0.07
[1], 328.15 K, x1 = 0.496 | – | 3.86 ± 0.08
[1], 328.15 K, x1 = 0.5967 | – | 4.38 ± 0.09
[1], 328.15 K, x1 = 0.6922 | – | 4.92 ± 0.1
[1], 328.15 K, x1 = 0.798 | – | 5.55 ± 0.11
[1], 328.15 K, x1 = 0.8997 | – | 6.21 ± 0.12
[1], 328.15 K, x1 = 0.9487 | – | 6.53 ± 0.13
[2], 288.15 K, x1 = 0.0981 | 746.25 ± 1.1 | –
[2], 288.15 K, x1 = 0.1985 | 771.84 ± 0.99 | –
[2], 288.15 K, x1 = 0.2459 | 784.06 ± 0.96 | –
[2], 288.15 K, x1 = 0.2944 | 796.71 ± 0.93 | –
[2], 288.15 K, x1 = 0.3937 | 822.83 ± 0.86 | –
[2], 288.15 K, x1 = 0.4957 | 850.01 ± 0.8 | –
[2], 288.15 K, x1 = 0.5957 | 876.93 ± 0.73 | –
[2], 288.15 K, x1 = 0.6952 | 904 ± 0.68 | –
[2], 288.15 K, x1 = 0.7937 | 931.06 ± 0.63 | –
[2], 288.15 K, x1 = 0.9005 | 960.86 ± 0.59 | –
[2], 288.15 K, x1 = 0.9494 | 974.71 ± 0.58 | –
[2], 293.15 K, x1 = 0.1006 | 742.71 ± 1.1 | –
[2], 293.15 K, x1 = 0.1961 | 766.97 ± 1 | –
[2], 293.15 K, x1 = 0.2461 | 779.84 ± 0.97 | –
[2], 293.15 K, x1 = 0.2982 | 793.34 ± 0.94 | –
[2], 293.15 K, x1 = 0.3979 | 819.48 ± 0.87 | –
[2], 293.15 K, x1 = 0.4995 | 846.49 ± 0.81 | –
[2], 293.15 K, x1 = 0.5939 | 871.77 ± 0.75 | –
[2], 293.15 K, x1 = 0.6986 | 900.11 ± 0.69 | –
[2], 293.15 K, x1 = 0.7979 | 927.37 ± 0.64 | –
[2], 293.15 K, x1 = 0.9022 | 956.37 ± 0.6 | –
[2], 293.15 K, x1 = 0.95 | 969.87 ± 0.59 | –
[2], 298.15 K, x1 = 0.1006 | 738.55 ± 1.1 | –
[2], 298.15 K, x1 = 0.1961 | 762.73 ± 1 | –
[2], 298.15 K, x1 = 0.2461 | 775.58 ± 0.98 | –
[2], 298.15 K, x1 = 0.2982 | 789.07 ± 0.95 | –
[2], 298.15 K, x1 = 0.3979 | 815.17 ± 0.88 | –
[2], 298.15 K, x1 = 0.4995 | 842.12 ± 0.82 | –
[2], 298.15 K, x1 = 0.5939 | 867.4 ± 0.76 | –
[2], 298.15 K, x1 = 0.6986 | 895.69 ± 0.7 | –
[2], 298.15 K, x1 = 0.7979 | 922.84 ± 0.65 | –
[2], 298.15 K, x1 = 0.9022 | 951.81 ± 0.61 | –
[2], 298.15 K, x1 = 0.95 | 965.31 ± 0.6 | –
[2], 303.15 K, x1 = 0.0982 | 733.94 ± 1.1 | –
[2], 303.15 K, x1 = 0.2002 | 759.61 ± 1 | –
[2], 303.15 K, x1 = 0.2485 | 771.99 ± 0.99 | –
[2], 303.15 K, x1 = 0.2996 | 785.17 ± 0.96 | –
[2], 303.15 K, x1 = 0.3994 | 811.21 ± 0.89 | –
[2], 303.15 K, x1 = 0.495 | 836.5 ± 0.83 | –
[2], 303.15 K, x1 = 0.5989 | 864.2 ± 0.77 | –
[2], 303.15 K, x1 = 0.6998 | 891.41 ± 0.71 | –
[2], 303.15 K, x1 = 0.8005 | 918.9 ± 0.66 | –
[2], 303.15 K, x1 = 0.8999 | 946.47 ± 0.62 | –
[2], 303.15 K, x1 = 0.9499 | 960.53 ± 0.6 | –
[2], 308.15 K, x1 = 0.0977 | 729.91 ± 1.1 | –
[2], 308.15 K, x1 = 0.1975 | 754.98 ± 1 | –
[2], 308.15 K, x1 = 0.2469 | 767.58 ± 1 | –
[2], 308.15 K, x1 = 0.2964 | 780.35 ± 0.97 | –
[2], 308.15 K, x1 = 0.3944 | 805.91 ± 0.91 | –
[2], 308.15 K, x1 = 0.4956 | 832.62 ± 0.84 | –
[2], 308.15 K, x1 = 0.5976 | 859.8 ± 0.78 | –
[2], 308.15 K, x1 = 0.6967 | 886.45 ± 0.72 | –
[2], 308.15 K, x1 = 0.7937 | 912.91 ± 0.67 | –
[2], 308.15 K, x1 = 0.9021 | 942.91 ± 0.62 | –
[2], 308.15 K, x1 = 0.9497 | 956.38 ± 0.61 | –
[2], 318.15 K, x1 = 0.0998 | 722.15 ± 1.1 | –
[2], 318.15 K, x1 = 0.1975 | 746.41 ± 1.1 | –
[2], 318.15 K, x1 = 0.2484 | 759.29 ± 1 | –
[2], 318.15 K, x1 = 0.3021 | 773.02 ± 1 | –
[2], 318.15 K, x1 = 0.3883 | 795.32 ± 0.94 | –
[2], 318.15 K, x1 = 0.4998 | 824.5 ± 0.87 | –
[2], 318.15 K, x1 = 0.5991 | 850.79 ± 0.8 | –
[2], 318.15 K, x1 = 0.6998 | 877.63 ± 0.74 | –
[2], 318.15 K, x1 = 0.799 | 904.47 ± 0.69 | –
[2], 318.15 K, x1 = 0.9009 | 932.54 ± 0.64 | –
[2], 318.15 K, x1 = 0.9498 | 946.28 ± 0.63 | –
[2], 328.15 K, x1 = 0.0998 | 713.9 ± 1.2 | –
[2], 328.15 K, x1 = 0.1975 | 737.96 ± 1.1 | –
[2], 328.15 K, x1 = 0.2484 | 750.75 ± 1.1 | –
[2], 328.15 K, x1 = 0.3021 | 764.37 ± 1 | –
[2], 328.15 K, x1 = 0.3883 | 786.52 ± 0.96 | –
[2], 328.15 K, x1 = 0.4998 | 815.5 ± 0.89 | –
[2], 328.15 K, x1 = 0.5991 | 841.63 ± 0.83 | –
[2], 328.15 K, x1 = 0.6998 | 868.32 ± 0.76 | –
[2], 328.15 K, x1 = 0.799 | 894.99 ± 0.71 | –
[2], 328.15 K, x1 = 0.9009 | 922.95 ± 0.66 | –
[2], 328.15 K, x1 = 0.95 | 936.74 ± 0.64 | –

From the NIST ThermoML archive (doi:10.1016/j.jct.2004.08.003)
